Results: ChEMBL document CHEMBL1138445, “Design and synthesis of potent inhibitors of cholesteryl ester transfer protein (CETP) exploiting a 1,2,3,4-tetrahydroquinoline platform” (Bioorg Med Chem Lett, 2009)

Tests used:
[1] = target: T1, Cholesteryl ester transfer protein (Homo sapiens) (UniProt P11597); test: Inhibition of human plasma derived CETP relative to control; parameters: concentration or dose not given beside the values; details: concentration not given here
T1 sequence (whole entry): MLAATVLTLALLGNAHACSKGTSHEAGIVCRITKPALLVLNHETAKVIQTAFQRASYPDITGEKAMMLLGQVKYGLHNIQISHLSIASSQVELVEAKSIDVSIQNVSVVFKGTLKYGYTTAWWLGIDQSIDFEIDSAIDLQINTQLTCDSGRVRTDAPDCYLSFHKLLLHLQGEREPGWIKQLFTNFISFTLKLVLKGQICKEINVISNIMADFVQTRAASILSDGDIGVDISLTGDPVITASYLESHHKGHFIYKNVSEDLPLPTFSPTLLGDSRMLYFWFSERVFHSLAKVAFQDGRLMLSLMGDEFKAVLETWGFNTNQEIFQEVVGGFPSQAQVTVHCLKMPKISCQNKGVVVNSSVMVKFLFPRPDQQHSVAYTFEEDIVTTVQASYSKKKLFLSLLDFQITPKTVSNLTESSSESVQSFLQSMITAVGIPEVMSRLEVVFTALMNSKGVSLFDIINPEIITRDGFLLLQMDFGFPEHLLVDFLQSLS

[2] = target: T2, Cholesteryl ester transfer protein (Homo sapiens, UniProt P11597); test: Inhibition of human plasma derived CETP; assay type: cell-free
T2 sequence (P11597 whole entry): T1 sequence (whole entry)

Cytochrome P450 2D6 = Cytochrome P450 2D6 (Homo sapiens, UniProt P10635); test: Inhibition of CYP2D6 from human liver microsomes; assay type: ADME
Sequence of Cytochrome P450 2D6 (P10635 whole entry): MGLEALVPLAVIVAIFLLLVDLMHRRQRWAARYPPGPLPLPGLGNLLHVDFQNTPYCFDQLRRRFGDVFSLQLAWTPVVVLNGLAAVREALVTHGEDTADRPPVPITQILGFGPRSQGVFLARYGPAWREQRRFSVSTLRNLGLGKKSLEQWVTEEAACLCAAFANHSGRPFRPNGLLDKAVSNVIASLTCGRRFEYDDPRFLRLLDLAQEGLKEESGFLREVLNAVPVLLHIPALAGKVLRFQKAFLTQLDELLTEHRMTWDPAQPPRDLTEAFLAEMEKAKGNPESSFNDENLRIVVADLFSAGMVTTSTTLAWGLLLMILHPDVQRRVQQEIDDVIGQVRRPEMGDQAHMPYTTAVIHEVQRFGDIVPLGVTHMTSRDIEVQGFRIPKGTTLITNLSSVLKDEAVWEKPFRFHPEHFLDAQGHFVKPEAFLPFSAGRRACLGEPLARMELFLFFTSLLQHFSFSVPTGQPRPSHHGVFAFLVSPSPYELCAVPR

[3] = Cmax in Sprague-Dawley rat at 10 mg/kg, po; assay type: ADME, organism-based; parameters: dose 10 mg/kg, route oral; details: in vivo
[4] = Tmax in Sprague-Dawley rat at 10 mg/kg, po; assay type: ADME, organism-based; parameters: dose 10 mg/kg, route oral; details: in vivo
[5] = Half life in Sprague-Dawley rat at 10 mg/kg, po; assay type: ADME, organism-based; parameters: dose 10 mg/kg, route oral; details: in vivo
[6] = AUC in Sprague-Dawley rat at 10 mg/kg, po; assay type: ADME, organism-based; parameters: dose 10 mg/kg, route oral; details: plasma
[7] = Oral bioavailability in Sprague-Dawley rat at 10 mg/kg; assay type: ADME, organism-based; details: in vivo
[8] = Plasma clearance in Sprague-Dawley rat at 2 mg/kg, iv; assay type: ADME, organism-based; parameters: dose 2 mg/kg, route intravenous
[9] = Volume of distribution at steady state in Sprague-Dawley rat at 2 mg/kg, iv; assay type: ADME, organism-based; parameters: dose 2 mg/kg, route intravenous; details: in vivo, read-out: Vdss
[10] = Cmax in Sprague-Dawley rat at 2 mg/kg, iv; assay type: ADME, organism-based; parameters: dose 2 mg/kg, route intravenous; details: in vivo
[11] = Half life in Sprague-Dawley rat at 2 mg/kg, iv; assay type: ADME, organism-based; parameters: dose 2 mg/kg, route intravenous; details: in vivo
[12] = AUC in Sprague-Dawley rat at 2 mg/kg, iv; assay type: ADME, organism-based; parameters: dose 2 mg/kg, route intravenous; details: plasma
[13] = Permeability across human Caco-2 cell; assay type: ADME, cell-based; details: read-out: permeability
[14] = Metabolic stability in human liver microsomes assessed as half life; assay type: ADME, Microsome
Cytochrome P450 2C9 = Cytochrome P450 2C9 (Homo sapiens, UniProt P11712); test: Inhibition of CYP2C9 from human liver microsomes; assay type: ADME
Sequence of Cytochrome P450 2C9 (P11712 whole entry): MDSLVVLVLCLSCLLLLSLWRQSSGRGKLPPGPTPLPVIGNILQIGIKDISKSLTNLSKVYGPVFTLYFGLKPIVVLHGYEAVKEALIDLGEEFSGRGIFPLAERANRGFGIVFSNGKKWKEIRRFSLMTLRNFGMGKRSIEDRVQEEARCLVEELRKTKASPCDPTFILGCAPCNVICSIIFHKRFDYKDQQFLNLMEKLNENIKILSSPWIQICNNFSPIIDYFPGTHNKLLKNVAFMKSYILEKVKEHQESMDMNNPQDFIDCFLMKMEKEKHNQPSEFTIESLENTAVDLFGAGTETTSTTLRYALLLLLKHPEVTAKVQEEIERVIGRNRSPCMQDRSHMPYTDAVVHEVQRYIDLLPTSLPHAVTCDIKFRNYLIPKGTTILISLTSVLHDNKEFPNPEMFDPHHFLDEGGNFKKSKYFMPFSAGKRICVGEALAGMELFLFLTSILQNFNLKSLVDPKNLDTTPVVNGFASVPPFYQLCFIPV

Cytochrome P450 2A6 = target: T3, Cytochrome P450 2A6 (Homo sapiens, UniProt P11509); test: Inhibition of CYP2A6 from human liver microsomes; assay type: ADME
T3 sequence (P11509 whole entry): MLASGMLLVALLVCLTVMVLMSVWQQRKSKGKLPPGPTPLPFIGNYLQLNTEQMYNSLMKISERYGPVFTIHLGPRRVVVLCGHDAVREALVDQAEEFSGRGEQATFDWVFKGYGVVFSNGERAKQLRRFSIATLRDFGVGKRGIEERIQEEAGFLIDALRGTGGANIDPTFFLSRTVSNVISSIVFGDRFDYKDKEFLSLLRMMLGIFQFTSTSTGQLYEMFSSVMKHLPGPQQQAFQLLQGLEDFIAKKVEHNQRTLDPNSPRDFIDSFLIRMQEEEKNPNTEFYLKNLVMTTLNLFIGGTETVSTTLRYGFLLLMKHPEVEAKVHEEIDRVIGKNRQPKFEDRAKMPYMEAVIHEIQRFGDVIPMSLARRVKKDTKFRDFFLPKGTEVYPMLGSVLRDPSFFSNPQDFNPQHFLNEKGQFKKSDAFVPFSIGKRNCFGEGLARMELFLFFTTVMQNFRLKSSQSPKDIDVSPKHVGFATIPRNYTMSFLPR

Cytochrome P450 2C19 = Cytochrome P450 2C19 (Homo sapiens, UniProt P33261); test: Inhibition of CYP2C19 from human liver microsomes; assay type: ADME
Sequence of Cytochrome P450 2C19 (P33261 whole entry): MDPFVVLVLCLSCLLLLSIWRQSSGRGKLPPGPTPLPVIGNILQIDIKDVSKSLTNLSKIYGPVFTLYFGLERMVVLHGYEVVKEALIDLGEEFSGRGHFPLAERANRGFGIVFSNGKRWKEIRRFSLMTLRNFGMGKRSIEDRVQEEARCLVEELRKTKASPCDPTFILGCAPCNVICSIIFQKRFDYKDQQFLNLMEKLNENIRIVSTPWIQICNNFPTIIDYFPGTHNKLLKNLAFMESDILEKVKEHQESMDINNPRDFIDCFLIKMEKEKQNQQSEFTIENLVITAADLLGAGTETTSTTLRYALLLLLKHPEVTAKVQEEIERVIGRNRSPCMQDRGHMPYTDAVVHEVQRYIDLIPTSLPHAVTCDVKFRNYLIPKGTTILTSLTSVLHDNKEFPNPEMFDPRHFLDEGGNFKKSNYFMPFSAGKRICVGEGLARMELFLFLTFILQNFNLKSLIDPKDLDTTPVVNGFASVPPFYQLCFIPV

Cytochrome P450 2E1 = Cytochrome P450 2E1 (Homo sapiens, UniProt P05181); test: Inhibition of CYP2E1 from human liver microsomes; assay type: ADME
Sequence of Cytochrome P450 2E1 (P05181 whole entry): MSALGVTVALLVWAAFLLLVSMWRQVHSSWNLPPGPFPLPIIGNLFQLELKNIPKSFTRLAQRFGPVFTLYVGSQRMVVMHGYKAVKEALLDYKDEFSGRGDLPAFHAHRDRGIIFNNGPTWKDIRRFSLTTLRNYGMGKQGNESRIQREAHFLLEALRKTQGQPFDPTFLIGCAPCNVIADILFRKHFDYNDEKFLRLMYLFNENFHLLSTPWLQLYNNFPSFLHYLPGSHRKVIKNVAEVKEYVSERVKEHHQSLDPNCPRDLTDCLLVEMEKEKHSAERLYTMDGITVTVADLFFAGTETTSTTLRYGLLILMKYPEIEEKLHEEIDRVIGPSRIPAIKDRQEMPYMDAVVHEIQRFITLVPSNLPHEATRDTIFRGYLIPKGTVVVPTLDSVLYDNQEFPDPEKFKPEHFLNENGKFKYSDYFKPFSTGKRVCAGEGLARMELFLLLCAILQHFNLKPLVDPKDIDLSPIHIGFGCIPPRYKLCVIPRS

Cytochrome P450 1A2 = target: T4, Cytochrome P450 1A2 (Homo sapiens, UniProt P05177); test: Inhibition of CYP1A2 from human liver microsomes; assay type: ADME
T4 sequence (P05177 whole entry): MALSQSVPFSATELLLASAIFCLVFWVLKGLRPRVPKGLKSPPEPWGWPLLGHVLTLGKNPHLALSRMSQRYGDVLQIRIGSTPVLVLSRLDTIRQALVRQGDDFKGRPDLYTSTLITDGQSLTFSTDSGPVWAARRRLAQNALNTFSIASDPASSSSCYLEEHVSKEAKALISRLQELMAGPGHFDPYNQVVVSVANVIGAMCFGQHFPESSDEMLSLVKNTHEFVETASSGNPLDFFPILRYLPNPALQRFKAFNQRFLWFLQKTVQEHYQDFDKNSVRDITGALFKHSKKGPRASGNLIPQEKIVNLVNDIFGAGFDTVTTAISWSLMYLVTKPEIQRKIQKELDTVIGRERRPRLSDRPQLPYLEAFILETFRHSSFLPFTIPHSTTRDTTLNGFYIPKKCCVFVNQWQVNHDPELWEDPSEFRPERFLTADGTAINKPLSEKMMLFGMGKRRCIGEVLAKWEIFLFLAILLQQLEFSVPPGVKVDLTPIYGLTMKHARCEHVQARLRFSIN

Cytochrome P450 3A4 = Cytochrome P450 3A4 (Homo sapiens, UniProt P08684); test: Inhibition of CYP3A4 from human liver microsomes; assay type: ADME
Sequence of Cytochrome P450 3A4 (P08684 whole entry): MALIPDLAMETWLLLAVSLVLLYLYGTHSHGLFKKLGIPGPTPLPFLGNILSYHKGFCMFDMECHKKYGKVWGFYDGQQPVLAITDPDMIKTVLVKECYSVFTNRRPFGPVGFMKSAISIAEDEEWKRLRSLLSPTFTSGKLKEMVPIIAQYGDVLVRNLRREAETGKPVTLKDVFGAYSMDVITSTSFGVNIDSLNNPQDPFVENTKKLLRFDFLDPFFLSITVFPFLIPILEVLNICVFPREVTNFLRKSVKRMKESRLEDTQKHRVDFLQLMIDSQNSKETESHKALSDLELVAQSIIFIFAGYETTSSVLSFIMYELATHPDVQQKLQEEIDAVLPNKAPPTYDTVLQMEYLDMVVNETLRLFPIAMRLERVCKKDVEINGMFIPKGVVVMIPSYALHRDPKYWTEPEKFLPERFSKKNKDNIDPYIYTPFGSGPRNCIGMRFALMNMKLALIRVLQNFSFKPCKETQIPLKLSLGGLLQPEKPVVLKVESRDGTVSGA

Compound	inhibition [1] [%]	IC50 [2] [µM]	further results
C[C@@H](O)CN1c2cccc(-c3cccc(OC(F)(F)F)c3)c2CC[C@@H]1c1cccc(OC(F)(F)F)c1	68	0.125	–
CC(C)Oc1cccc(-c2cccc3c2CCC(c2cccc(OC(F)(F)C(F)F)c2)N3CC(O)C(F)(F)F)c1 (stereo not given)	55	0.345	–
OC(CN1c2cccc(-c3cccc(OC(F)(F)F)c3)c2CCC1c1cccc(OC(F)(F)C(F)F)c1)C(F)(F)F (single isomer, unassigned; 19)	–	0.033	–
OC(CN1c2cccc(-c3cccc(OC(F)(F)F)c3)c2CCC1c1cccc(OC(F)(F)C(F)F)c1)C(F)(F)F (single isomer, unassigned; 20)	–	0.3	–
OC(CN1c2cccc(-c3ccc(OC(F)(F)F)cc3)c2CCC1c1cccc(OC(F)(F)C(F)F)c1)C(F)(F)F (single isomer, unassigned; diastereomer 1)	85	0.5	–
N#Cc1cccc(-c2cccc3c2CCC(c2cccc(OC(F)(F)C(F)F)c2)N3CC(O)C(F)(F)F)c1 (single isomer, unassigned; diastereomer 1)	–	0.235	–
OC(CN1c2cccc(-c3cccc(Cl)c3)c2CCC1c1cccc(OC(F)(F)C(F)F)c1)C(F)(F)F (single isomer, unassigned; diastereomer 1)	–	0.064	–
COc1cccc(-c2cccc3c2CCC(c2cccc(OC(F)(F)C(F)F)c2)N3CC(O)C(F)(F)F)c1 (single isomer, unassigned; diastereomer 1)	–	0.126	–
OC(CN1c2cccc(-c3cccnc3)c2CCC1c1cccc(OC(F)(F)C(F)F)c1)C(F)(F)F (single isomer, unassigned; diastereomer 1)	47	> 3	–
OC(CN1c2cccc(-c3cccc(F)c3)c2CCC1c1cccc(OC(F)(F)C(F)F)c1)C(F)(F)F (single isomer, unassigned; diastereomer 1)	–	0.117	–
OC(CN1c2cccc(-c3cccs3)c2CCC1c1cccc(OC(F)(F)C(F)F)c1)C(F)(F)F (single isomer, unassigned; diastereomer 1)	63	0.317	–
CC(C)c1cccc(-c2cccc3c2CCC(c2cccc(OC(F)(F)C(F)F)c2)N3CC(O)C(F)(F)F)c1 (single isomer, unassigned; diastereomer 1)	63	0.277	–
OC(CN1c2cccc(-c3cccc(Cl)c3Cl)c2CCC1c1cccc(OC(F)(F)C(F)F)c1)C(F)(F)F (single isomer, unassigned; diastereomer 2)	–	0.4	–
OC(CN1c2cccc(-c3cccc(OC(F)(F)F)c3)c2CCC1C1CCCCC1)C(F)(F)F (single isomer, unassigned; form 2)	13	–	–
OC(CN1c2cccc(-c3cccc(Cl)c3Cl)c2CCC1c1cccc(OC(F)(F)C(F)F)c1)C(F)(F)F (stereo in doubt; 17)	67	–	–
OC(CN1c2cccc(-c3cccc(OC(F)(F)F)c3)c2CCC1c1ccc(OC(F)(F)C(F)F)cc1)C(F)(F)F (stereo in doubt; 41)	14	–	–
OC(CN1c2cccc(-c3cccc(OC(F)(F)F)c3)c2CCC1c1cccc(C(F)(F)F)c1)C(F)(F)F (stereo in doubt; 48) [listing 1 of 2 here]	–	0.143	–
OC(CN1c2cccc(-c3cccc(OC(F)(F)F)c3)c2CCC1c1cccc(C(F)(F)F)c1)C(F)(F)F (stereo in doubt; 48) [listing 2 of 2 here]	50	–	–
OC(CN1c2cccc(-c3cccc(OC(F)(F)F)c3)c2CCC1c1cccc(OC(F)(F)F)c1)C(F)(F)F (stereo in doubt; 52) [listing 1 of 2 here]	–	0.125	–
OC(CN1c2cccc(-c3cccc(OC(F)(F)F)c3)c2CCC1c1cccc(OC(F)(F)F)c1)C(F)(F)F (stereo in doubt; 52) [listing 2 of 2 here]	68	–	–
OC(CN1c2cccc(-c3cccc(OC(F)(F)F)c3)c2CCC1c1cccc(OC(F)(F)F)c1)C(F)(F)F (stereo in doubt; 53)	34	–	–
O[C@@H](CN1c2cccc(-c3cccc(OC(F)(F)F)c3)c2CC[C@@H]1c1cccc(OC(F)(F)F)c1)C(F)(F)F [TETRAHYDROQUINOLINE A]	85	0.039	Activity (Cytochrome P450 2D6): Not Active; Cmax [3]: 0.95 µg/mL; Tmax [4]: 6 h; half-life [5]: 28 h; AUC [6]: 31.3 µg·h/mL; bioavailability [7]: 31%; clearance [8]: 0.108 L/h/kg; Vd [9]: 0.36 L/kg; Cmax [10]: 31.4 µg/mL; half-life [11]: 17.4 h; AUC [12]: 18.9 µg·h/mL; Papp [13]: 47 nm/s; half-life [14]: > 2.13 h; Activity (Cytochrome P450 2C9): Not Active; Activity (Cytochrome P450 2A6): Not Active; Activity (Cytochrome P450 2C19): Not Active; Activity (Cytochrome P450 2E1): Not Active; Activity (Cytochrome P450 1A2): Not Active; Activity (Cytochrome P450 3A4): Not Active
O[C@H](CN1c2cccc(-c3cccc(OC(F)(F)F)c3)c2CC[C@@H]1c1cccc(OC(F)(F)F)c1)C(F)(F)F [TETRAHYDROQUINOLINE B]	62	> 3	–
